Reference: patent US20100234339A1, “SILVER(I) COMPOUNDS AND THEIR USE IN PHARMACEUTICAL COMPOSITIONS FOR THE TREATMENT,PROPHYLAXIS AND PREVENTION OF INFECTIONS” (priority 2007, published 2010)

Key:
[1] = test system: S. aureus 1; test: MIC, broth microdilution (NCCLS); type: cell-based; settings: Gram positive; resistant clinical isolate from diabetic foot ulcer; MHB 24 h 35° C.
Procedure: (§1) Their antimicrobial activity was established according to the recommendations of NCCLS, (National Committee for Clinical Laboratory Standards 1999, “Performance standards for antimicrobial susceptibility testing. NCCLS approved standard M100-S9” Wayne, Pa.) by the use of a broth microdilution method. Minimum inhibitory concentrations (MICs) for the tested compound were conducted using 12 different pathogens clinically isolated from diabetic foot ulcers and are all resistant strains for at least 10 antibiotics used for diabetic foot ulcer treatment. S. aureus 1, 2 and 3 and S. pyogenes 1, 2 and 3 as […] bacteria and P. mirabilis 1, 2 and 3 and Ps. aeruginosa 1, 2 and 3 as […] bacteria. The test materials were dissolved in DMSO. The highest concentration used was 256 μg/ml. The inoculum was 10^5CFU/ml for bacteria and 10^4CFU/ml for the yeast. Bacteria were cultured in Mueller Hinton Broth (MHB) for 24 h at 35° C. and the yeast in Glucose Peptone Broth (GPB) for 48 h at 30° C. MIC value was corresponding to the lowest concentration that inhibited the bacterial growth.
(§2) For the following seven samples, MICs values were determined and the antimicrobial activity is inversely proportional to this value. Concentrations used in this screening were: 1, 2, 4, 8, 16, 32, 64, 128 and 256 (μg/ml). 1 μg/ml corresponds to a 10^−4% solution and an Ag(I) concentration of about 2·10^−6 mol/dm^3.

[2] = test system: S. aureus 2; test: MIC, broth microdilution (NCCLS); type: cell-based; settings: Gram positive; resistant clinical isolate from diabetic foot ulcer; MHB 24 h 35° C.
Procedure: as §1, §2

[3] = test system: S. pyogenes 2; test: MIC, broth microdilution (NCCLS); type: cell-based; settings: Gram positive; resistant clinical isolate from diabetic foot ulcer; MHB 24 h 35° C.
Procedure: as §1, §2

[4] = test system: P. mirabilis 1; test: MIC, broth microdilution (NCCLS); type: cell-based; settings: Gram negative; resistant clinical isolate from diabetic foot ulcer; MHB 24 h 35° C.
Procedure: as §1, §2

[5] = test system: S. pyogenes 3; test: MIC, broth microdilution (NCCLS); type: cell-based; settings: Gram positive; resistant clinical isolate from diabetic foot ulcer; MHB 24 h 35° C.
Procedure: as §1, §2

[6] = test system: S. aureus 3; test: MIC, broth microdilution (NCCLS); type: cell-based; settings: Gram positive; resistant clinical isolate from diabetic foot ulcer; MHB 24 h 35° C.
Procedure: as §1, §2

[7] = test system: Ps. aeruginosa 1; test: MIC, broth microdilution (NCCLS); type: cell-based; settings: Gram negative; resistant clinical isolate from diabetic foot ulcer; MHB 24 h 35° C.
Procedure: as §1, §2

[8] = test system: P. mirabilis 3; test: MIC, broth microdilution (NCCLS); type: cell-based; settings: Gram negative; resistant clinical isolate from diabetic foot ulcer; MHB 24 h 35° C.
Procedure: as §1, §2

[9] = test system: S. pyogenes 1; test: MIC, broth microdilution (NCCLS); type: cell-based; settings: Gram positive; resistant clinical isolate from diabetic foot ulcer; MHB 24 h 35° C.
Procedure: as §1, §2

[10] = test system: P. mirabilis 2; test: MIC, broth microdilution (NCCLS); type: cell-based; settings: Gram negative; resistant clinical isolate from diabetic foot ulcer; MHB 24 h 35° C.
Procedure: as §1, §2

[11] = Solubility in DMSO; type: physicochemical; settings: sparingly soluble

Compound | MIC S. aureus 1 [1] [µg/mL] | MIC S. aureus 2 [2] [µg/mL] | MIC S. pyogenes 2 [3] [µg/mL] | MIC P. mirabilis 1 [4] [µg/mL] | MIC S. pyogenes 3 [5] [µg/mL] | MIC S. aureus 3 [6] [µg/mL] | MIC Ps. Aeruginosa 1 [7] [µg/mL] | MIC P. mirabilis 3 [8] [µg/mL] | MIC S. pyogenes 1 [9] [µg/mL] | MIC P. mirabilis 2 [10] [µg/mL] | solubility in DMSO [11] [mg/mL]
CCOC(=O)c1ccncc1.O=[N+]([O-])[O-].[Ag+] [Compound 3, [Ag(ethylisonicotinato)2]NO3] | 8 | 4 | 16 | 8 | 16 | 16 | 32 | 16 | 32 | 2 | 3 to 5
CCOC(=O)c1cccnc1.O=[N+]([O-])[O-].[Ag+] [Compound 2, [Ag(ethylnicotinate)2]NO3] | 16 | 4 | 4 | 128 | 2 | 4 | 64 | 256 | 2 | 128 | 3 to 5
COC(=O)c1ccncc1.O=[N+]([O-])[O-].[Ag+] [Compound 4, [Ag(methylisonicotinate)2]NO3] | 16 | 32 | 128 | 2 | 64 | 8 | 128 | 2 | 64 | 1 | 3 to 5
Nc1ncccc1C(=O)O.Nc1ncccc1C(=O)O.O=[N+]([O-])[O-].O=[N+]([O-])[O-].[Ag+].[Ag+] [Compound 6, [Ag2-μ-O,O′(2-aminonicotinium)2](NO3)2] | 32 | 32 | 256 | 64 | 256 | 64 | 8 | 32 | 128 | 16 | –
